Assays:
Assay type in all cases: cell-based
human TLR8 = molecular target: T1, human TLR8 (Homo sapiens, UniProt Q9NR97); experiment: HEK-Blue hTLR8 reporter cell assay (SEAP, NF-kB/AP-1) for stimulation of human TLR8; conditions: HEK-Blue hTLR8 cells, 24 h incubation, SEAP readout; read-out: TLR8_EC50
T1 construct: host or cells: HEK293 (HEK-Blue hTLR8)
T1 sequence (Q9NR97 27-1041): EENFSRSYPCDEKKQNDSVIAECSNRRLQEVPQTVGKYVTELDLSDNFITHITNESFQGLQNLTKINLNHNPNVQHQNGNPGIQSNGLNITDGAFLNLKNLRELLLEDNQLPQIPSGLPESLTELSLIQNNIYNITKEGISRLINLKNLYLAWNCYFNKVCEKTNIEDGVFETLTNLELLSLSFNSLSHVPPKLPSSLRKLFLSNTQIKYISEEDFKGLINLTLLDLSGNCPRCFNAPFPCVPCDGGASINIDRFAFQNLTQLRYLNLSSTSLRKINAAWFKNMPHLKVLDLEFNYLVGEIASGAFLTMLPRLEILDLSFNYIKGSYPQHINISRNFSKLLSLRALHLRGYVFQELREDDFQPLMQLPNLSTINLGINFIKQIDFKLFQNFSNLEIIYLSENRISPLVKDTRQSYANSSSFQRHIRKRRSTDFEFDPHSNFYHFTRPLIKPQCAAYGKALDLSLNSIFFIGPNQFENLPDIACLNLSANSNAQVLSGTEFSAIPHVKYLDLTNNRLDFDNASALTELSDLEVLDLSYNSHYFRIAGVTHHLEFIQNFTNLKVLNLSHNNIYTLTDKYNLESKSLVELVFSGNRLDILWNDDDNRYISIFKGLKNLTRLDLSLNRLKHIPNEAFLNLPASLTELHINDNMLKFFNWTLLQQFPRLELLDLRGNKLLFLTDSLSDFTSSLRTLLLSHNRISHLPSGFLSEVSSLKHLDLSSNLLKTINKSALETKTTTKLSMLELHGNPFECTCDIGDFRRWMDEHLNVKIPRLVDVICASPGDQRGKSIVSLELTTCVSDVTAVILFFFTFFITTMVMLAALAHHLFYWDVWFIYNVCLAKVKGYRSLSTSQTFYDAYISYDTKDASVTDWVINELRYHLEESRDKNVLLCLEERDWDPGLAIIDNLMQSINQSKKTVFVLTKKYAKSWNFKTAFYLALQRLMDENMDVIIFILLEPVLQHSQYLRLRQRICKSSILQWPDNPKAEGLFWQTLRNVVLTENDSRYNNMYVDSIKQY
In short: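 HEK293 cells carrying hTLR8 and a SEAP reporter driven by NF-κB/AP-1 sites were seeded at 3.10E4 cells/well and held 18 to 24 h at 37° C., 5% CO2 before compound addition. Supernatant SEAP measured with QUANTI-Blue™.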

IFN-α2a = IFN-α2a cytokine activation in human PBMC (MSD assay); conditions: Homo sapiens, PBMC, 24 h
Protocol: (§1) The other below tests involving measuring the in vitro activity of some compounds of the disclosure on cytokines IFN-α2a, IL-6, IL29 and TNF-α were carried out using human PBMC (PBMCs).
(§2) The activity described below, with respect to TLR7, TLR8, IFN-α2a, IL-6, IL29 and TNF-α, is given by the half maximal effective concentration (EC50), which corresponds to the concentration required to obtain a 50% of the activation. The lower the EC50, the less the concentration of the compound is required to produce 50% of maximum activation and the higher the potency.
(§3) In Vitro Assay to Determine IFN-α2a, IL-6, IL29 and TNF-α Cytokine Activation:
(§4) Peripheral blood mononuclear cells were isolated by Ficoll density gradient centrifugation from peripheral blood samples obtained from healthy donors (EFS). Isolated PBMCs are washed twice with PBS and resuspended in RPMI-1640 medium supplement with 10% fetal bovine serum (FBS) at 5.10^5 cells/well in a 96-well plate. The cells were then incubated with the compounds to test at various doses (20 μM to 4.8.10-6 μM final) for 24 h at 37° C., 5% CO2. After 24 h treatment, the plates are centrifuged and the supernatant were collected and assayed for cytokines IFN-α2a, IL-6, IL29 and TNF-α using the Meso Scale Discovery (MSD) assay platform according to the manufacturer's instructions. Briefly, 25 μL of cell culture supernatants were incubated for 1 h at Room Temperature (RT) in custom Multi-Spot 96-well plates prior coated with capture antibodies. After washing, SULFO-TAG® labeled detection antibodies were added to each of the wells and incubated for 1 h RT before adding a read buffer.

IL29 = IL29 cytokine activation in human PBMC (MSD assay); conditions: Homo sapiens, PBMC, 24 h
Protocol: as §1, §2, §3, §4

TNF-α = TNF-α cytokine activation in human PBMC (MSD assay); conditions: Homo sapiens, PBMC, 24 h
Protocol: as §1, §2, §3, §4

Structure (SMILES)	EC50 (human TLR8)	EC50 (IFN-α2a)	EC50 (IL29)	EC50 (TNF-α)
CCCCc1nc2c(N)nnc(OC(C)C)c2n1C[C@H]1CCC[C@@H](N)C1 (racemic) [Compound 23, 1-(((1S,3R)-3-aminocyclohexyl)methyl)-2-butyl-7-isopropoxy-1H-imidazo[4,5-d]pyridazin-4-amine (and enantiomer)]	14600 nM	3 nM	3 nM	5480 nM
CCCCc1nc2c(N)nnc(OC(C)C)c2n1Cc1ccc(OC)cc1 [Compound 1, 2-butyl-7-isopropoxy-1-(4-methoxybenzyl)-1H-imidazo[4,5-d]pyridazin-4-amine]	> 20000 nM	103 nM	173 nM	712 nM
CCCCc1nc2c(N)nnc(NC(C)C)c2n1Cc1ccc(OC)cc1 [Compound 2, 2-butyl-N7-isopropyl-1-(4-methoxybenzyl)-1H-imidazo[4,5-d]pyridazin-4,7-diamine]	> 20000 nM	3 nM	6 nM	573 nM
CCCCc1nc2c(N)nnc(SC(C)C)c2n1Cc1ccc(OC)cc1 [Compound 3, 2-butyl-7-(isopropylthio)-1-(4-methoxybenzyl)-1H-imidazo[4,5-d]pyridazin-4-amine]	> 20000 nM	62 nM	83 nM	2820 nM
CCCCc1nc2c(N)nnc(OCCOC)c2n1Cc1ccc(OC)cc1 [Compound 4, 2-butyl-1-(4-methoxybenzyl)-7-(2-methoxyethoxy)-1H-imidazo[4,5-d]pyridazin-4-amine]	> 20000 nM	81 nM	795 nM	> 20000 nM
C=CCOc1nnc(N)c2nc(CCCC)n(Cc3ccc(OC)cc3)c12 [Compound 6, 7-(allyloxy)-2-butyl-1-(4-methoxybenzyl)-1H-imidazo[4,5-d]pyridazin-4-amine]	> 20000 nM	112 nM	62 nM	641 nM
CCCCc1nc2c(N)nnc(OC3CCCC3)c2n1Cc1ccc(OC)cc1 [Compound 9, 2-butyl-7-(cyclopentyloxy)-1-(4-methoxybenzyl)-1H-imidazo[4,5-d]pyridazin-4-amine]	> 20000 nM	16 nM	15 nM	380 nM
CCCCc1nc2c(N)nnc(N3CCCC3)c2n1Cc1ccc(OC)cc1 [Compound 10, 2-butyl-1-(4-methoxybenzyl)-7-(pyrrolidin-1-yl)-1H-imidazo[4,5-d]pyridazin-4-amine]	> 20000 nM	14 nM	16 nM	453 nM
CCCCc1nc2c(N)nnc(-c3cc[nH]c3)c2n1Cc1ccc(OC)cc1 [Compound 14, 2-butyl-1-(4-methoxybenzyl)-7-(1H-pyrrol-3-yl)-1H-imidazo[4,5-d]pyridazin-4-amine]	> 20000 nM	18 nM	20 nM	708 nM
C=C(C)c1nnc(N)c2nc(CCCC)n(Cc3ccc(OC)cc3)c12 [Compound 17, 2-butyl-1-(4-methoxybenzyl)-7-(prop-1-en-2-yl)-1H-imidazo[4,5-d]pyridazin-4-amine]	> 20000 nM	17 nM	29 nM	> 20000 nM
CCCCc1nc2c(N)nnc(C(C)C)c2n1Cc1ccc(OC)cc1 [Compound 18, 2-butyl-7-isopropyl-1-(4-methoxybenzyl)-1H-imidazo[4,5-d]pyridazin-4-amine]	> 20000 nM	71 nM	109 nM	2810 nM

Source: patent US12583861B2, “Derivatives of imidazo[4,5-d]pyridazine, their preparation and their therapeutic application” (SANOFI, priority 2021, dated 2026)
